Reference: patent publication US11344548B2, “Analogs of 3,5-dihydroxypentanoate for bone formation” (KAOHSIUNG MEDICAL UNIVERSITY, priority 2015, dated 2022)
Read-outs that look alike come from different tables or passages of the source.

Tests used:
[1] = target: T1, HMG-CoA reductase (Homo sapiens, UniProt P04035); experiment: HMG-CoA reductase inhibition; type: biochemical; conditions: for IC50: HMG-CoA reductase 17.4 nM final, absorbance 340 nm; for effective inhibitory concentration compared with simvastatin: HMG-CoA reductase
T1 sequence (P04035 426-888 limits assumed): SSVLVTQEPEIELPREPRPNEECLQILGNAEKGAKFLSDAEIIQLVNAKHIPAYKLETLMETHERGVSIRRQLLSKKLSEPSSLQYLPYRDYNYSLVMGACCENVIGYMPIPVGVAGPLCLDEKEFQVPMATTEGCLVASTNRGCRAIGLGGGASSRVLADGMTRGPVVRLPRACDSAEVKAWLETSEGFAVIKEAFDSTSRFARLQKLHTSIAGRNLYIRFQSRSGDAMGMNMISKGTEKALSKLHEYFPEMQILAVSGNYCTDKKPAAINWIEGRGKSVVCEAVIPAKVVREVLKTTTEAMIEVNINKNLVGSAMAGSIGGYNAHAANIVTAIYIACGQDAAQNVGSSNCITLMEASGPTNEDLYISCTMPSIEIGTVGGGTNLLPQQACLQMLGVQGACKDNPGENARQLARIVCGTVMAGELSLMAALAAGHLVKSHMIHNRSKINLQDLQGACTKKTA
Protocol: HMG-CoA Reductase Inhibition
A 0.1 M phosphate buffer containing 100 μM […], 330 μM NADPH, 2% DMSO and 1 mg/mL BSA was firstly prepared. Compounds 1 and 4˜11 were added dissolved in phosphate buffer at various concentrations, then added HMG-CoA reductase (the final concentration is 17.4 nM) and mixed for 5 minutes. The absorbance of the solution was measured at 340 nm. The IC50 values were analyzed via nonlinear least-squares using Sigma 10 to determine the HMG-CoA reductase inhibition of compounds.

[2] = test system: D1 cells; type: cell-based
Protocol: (§1) The D1 cells, purchased from American Type Culture Collection, were plated in 48-well plates at a density of 3×10^4 cells/well. Once confluence was obtained, the cells were cultured in bone medium (BM, prepared with DMEM, 10% FBS, 100 U/mL penicillin, 100 μg/mL streptomycin, […] ascorbic acid, 1% NEAA, 1.5 g sodium bicarbonate) in the presence of compound 1. After 3 days, BM was replaced with an osteogenesis induction medium (OIM prepared with BM, 10^−2 M β-glycerophosphate and 10^−7 M dexamethasone). […] The medium was changed every 2 days. For the quantitative value of mineralization, the cells were washed with PBS triplex and fixed with 10% formalin for 30 minutes at room temperature. Thereafter, the cells were washed with deionized water triplex, and then stained with Alizarin Red S solution ([…], 80 mM, pH 4) for 10 minutes at room temperature. The cells were washed with deionized water triplex and dried overnight at room temperature. The Alizarin Red S was released from the cell matrix by being mixed with 10% acetic acid(aq) for 30 minutes. The concentration of Alizarin Red S was determined by measuring the absorbance at 415 nm.
The abilities of compounds 4˜11 to induce cell mineralization were evaluated followed the same method above, only remove dexamethasone from the recipe of osteogenesis induction medium.

[3] = test system: D1 cells; experiment: Cytotoxicity MTT assay on D1 cells; type: cell-based, rat; conditions: for IC50: Rattus norvegicus, 72 h, MTT, 3 days
Protocol: D1 cell is more sensitive than hADSC cell by drug treatment.
The cytotoxicity of compounds 4˜11 was analyzed using MTT assay. D1 cells were cultured to an initial culture density of 5×10^3 cells per well in a bone medium. The bone medium was a DMEM medium containing 10% Fetal bovine serum (FBS), 100 U/mL penicillin, 100 μg/mL streptomycin, […] ascorbic acid, 1% non-essential amino acids (NEAA) and 1.5 g sodium bicarbonate. After the cells were seeded, the bone medium with compounds 4˜11 respectively was set as the experimental group, the bone medium without compound was set as the blank test group, and all were cultured at 37° C. for 3 days. The MTT agent was added to the culture medium for 3 hours, then the medium was removed and the cells were washed with PBS, and 100 μL of DMSO was added to the wells to promote the dissolution of formazan. The DMSO solution containing formazan was measured using UV spectrophotometer at 595 nm wavelength, and the survival of cells was judged by the value of absorbance.

[4] = test system: zebrafish; experiment: Bone-targeting of test compounds in zebrafish; type: in vivo; conditions: living zebrafish, 3.2 μM, fluorescence microscope, FIG. 9(a), 9(b)
Protocol: Calcein, which is a known staining dye for the mineral in animals, was used as a positive control group.
The AB strain of wild-type zebrafish was used for this study. Embryos were collected after natural spawning, staged according to standard criteria, and raised synchronously at 28.5° C. in Hank's buffer (13.7 mM NaCl, 540 M KCl, 25 μM Na2HPO4, 44 μM KH2PO4, 300 μM CaCl2, 100 μM MgSO4, 420 μM NaHCO3, pH 7.4). Zebrafish larvae at 2 dpf were exposed to test compounds (3.2 μM) for 3 days in a 24-well plate. At 7 dpf, the fish were anesthetized using tricaine-methanesulfonate (MS 222) and mounted on depression glass slides with methyl-cellulose (3%), and the images of the zebrafish were acquired using a Leica DM-6000 CS fluorescence microscope (Leica Instruments Inc., Wetzlar, Germany). All of the images were acquired using a SPOT Xplorer Digital camera (Diagnostic Instruments, Inc., Sterling Heights, Mich., USA). Each image was taken at 60-sec.

[5] = test system: zebrafish; experiment: Bone formation induced by test compounds in zebrafish (calcein staining); type: in vivo; conditions: zebrafish larvae, 0.32 μM, calcein stain, FIG. 9(c)
Protocol: The non-oligopeptide derivative 7 which had the most outstanding overall performance was selected from the above experiments. In the study for increasing the bone mass of zebrafish, when 0.1 or 1 μM of compound 7 were treated, both can promote bone formation in the zebrafish, and the increase range was between 30% and 50% compared with the non-administration group.
Zebrafish larvae at 2 dpf were treated with test compounds (0.32 μM) for 6 days in a 24-well plate. At 7 dpf, the fish were transferred to 6-cm dishes (8 fish/dish) for bone staining using calcein solution. The calcein solution was prepared at 0.2% by dissolving 2 g of calcein powder (Sigma Chemical, St. Louis, Mo.) in 1 liter of deionized water. The immersion time was 10 minutes at 7 dpf. After the immersion, the embryos were rinsed a number of times in fresh water, and then allowed to stand for 10 mins to allow the excess stain diffusion from the larvae tissue. The embryos were then euthanized in tricaine-methanesulfonate (MS 222) and mounted on depression glass slides with methyl-cellulose (3%). […] Each image was taken at 200 mini-seconds, then the fluorescence of the calcein stain images was calculated using NIH Image J (NIH open software with Macbiophotonics plugins). […]

[6] = test system: human adipose stem cells (hADSC); experiment: Cytotoxicity MTS assay on human adipose stem cells
Protocol: Statins are known agents that induced stem cells to be osteogenesis.
In a 96-well plate, human adipose stem cells (hADSC) were cultured to an initial culture density of 6×10^3 cells per well in K medium (Keratinocyte-SFM, GIBCO-Invitrogen Corporation). […] The MTS agent was added to the culture medium for 3 hours, then the medium was removed and the cells were washed with PBS (phosphate buffered saline), and 100 μL of DMSO (dimethyl sulfoxide) was added to the wells to promote the dissolution of formazan. The DMSO solution containing formazan was measured using UV spectrophotometer at 490 nm wavelength, and the survival of cells was judged by the value of absorbance.

[7] = test system: zebrafish; conditions: reported by Fleming; cited from earlier work
[8] = test system: D1 cells; experiment: Induction of mineralization (Alizarin Red S), FIG. 7; type: cell-based, rat
Protocol: Following the tests above, the ability of inducing mineralization of the compounds to D1 cells was tested.
as §1

[9] = Combination with HAP monitored by fluorescent microscope; type: physicochemical; conditions: FIG. 6
Excerpt: If compound 1-F is combined with HAP, it can be monitored using a fluorescent microscope.

[10] = Solubility comparison; type: physicochemical; conditions: compared with simvastatin

CCC(C)(C)C(=O)O[C@H]1C[C@@H](C)C=C2C=C[C@H](C)[C@H](CC[C@@H](O)C[C@@H](O)CC(=O)NCCCO)[C@H]21 [Compound 6]
IC50 [1]: 1.13 ± 0.0895 µM | induction of cell mineralization ([2]; 1 μM, Day 11, FIG. 8(b)): excellent ability to induce cell mineralization | IC50 [3]: 161 ± 3.76 µM

O=C(O)CN(CC(=O)O)Cc1cc2c(cc1O)Oc1cc(O)c(CN(CC(=O)O)CC(=O)O)cc1C21OC(=O)c2ccccc21 [Calcein, reference compound]
bone-targeting (fluorescence on the bones) [4]: fluorescent staining on the bone can be observed

CCC(C)(C)C(=O)O[C@H]1C[C@@H](C)C=C2C=C[C@H](C)[C@H](CC[C@@H](O)C[C@@H](O)CC(=O)NCCO)[C@H]21 [Compound 5]
IC50 [1]: 1.02 ± 0.0509 µM | induction of cell mineralization ([2]; 1 μM, Day 9, FIG. 8(a)): clearly induced cell mineralization | induction of cell mineralization ([2]; 1 μM, Day 11, FIG. 8(b)): excellent ability to induce cell mineralization | IC50 [3]: 117 ± 8.07 µM

CCC(C)(C)C(=O)O[C@H]1C[C@@H](C)C=C2C=C[C@H](C)[C@H](CC[C@@H](O)C[C@@H](O)CC(=O)O)[C@H]21 [Compound 4, simvastatin acid, reference compound]
IC50 [1]: 0.263 ± 0.0834 µM | induction of cell mineralization ([2]; 4 μM, FIG. 8(c)): can only induce mineralization effectively under a concentration of 4 μM | IC50 [3]: 29.4 ± 1.02 µM

CCC(C)(C)C(=O)O[C@H]1C[C@@H](C)C=C2C=C[C@H](C)[C@H](CC[C@@H]3C[C@@H](O)CC(=O)O3)[C@H]21 [Simvastatin, (1S,3R,7S,8S,8aR)-8-{2-[(2R,4R)-4-hydroxy-6-oxotetrahydro-2H-pyran-2-yl]ethyl}-3,7-dimethyl-1,2,3,7,8,8a-hexahydronaphthalen-1-yl2,2-dimethylbutanoate, reference compound]
promotion of bone formation compared with the non-administration group (control) [5]: did not promote bone formation | IC50 ([6]; Homo sapiens, 72 h): 3.25 ± 0.31 µM | IC50 [3]: 3.25 ± 0.31 µM | bone growth of zebrafish [7]: does not benefit in the bone growth of zebrafish

CCC(C)(C)C(=O)O[C@H]1C[C@@H](C)C=C2C=C[C@H](C)[C@H](CC[C@@H](O)C[C@@H](O)CC(=O)N[C@@H](CCCCNC(=O)[C@H](CC(=O)O)NC(=O)[C@H](CC(=O)O)NC(=O)[C@H](CC(=O)O)NC(=O)[C@H](CC(=O)O)NC(=O)[C@H](CC(=O)O)NC(=O)[C@H](CC(=O)O)NC(=O)[C@H](CCCCNC(=S)Nc3ccc4c(c3)C(=O)OC43c4ccc(O)cc4Oc4cc(O)ccc43)NC(=O)OCCOCCOCCOCCOCCOCCOCCOCCOCCOCCOCCOC)C(=O)NCC(=O)O)[C@H]21 [Compound 1-F]
effective inhibitory concentration compared with simvastatin [1]: 500 fold | promotion of bone formation compared with the non-administration group (control) [5]: up to 50% | IC50 compared with simvastatin ([6]; cytotoxicity, hADSC): 300 fold | induction of mineralization ([8]; 15 μM): can induce mineralization of D1 cells | induction of mineralization ([8]; over 20 μM): can induce mineralization of D1 cells | bone-targeting (fluorescence on the bones) [4]: targets the bones successfully | combination with HAP [9]: combines on the surface of HAP

CCC(C)(C)C(=O)O[C@H]1C[C@@H](C)C=C2C=C[C@H](C)[C@H](CC[C@@H](O)C[C@@H](O)CC(=O)NN)[C@H]21 [Compound 8]
IC50 [1]: 0.95 ± 0.0801 µM | IC50 [3]: 106 ± 3.3 µM

CCC(C)(C)C(=O)O[C@H]1C[C@@H](C)C=C2C=C[C@H](C)[C@H](CC[C@@H](O)C[C@@H](O)CC(=O)NCc3ccccn3)[C@H]21 [Compound 9]
effective inhibitory concentration compared with simvastatin [1]: 500 fold | IC50 [1]: > 30 µM | IC50 [3]: 97.3 ± 7.9 µM

CCC(C)(C)C(=O)O[C@H]1C[C@@H](C)C=C2C=C[C@H](C)[C@H](CC[C@@H](O)C[C@@H](O)CC(=O)NCCOCCO)[C@H]21 [Compound 7]
IC50 [1]: 0.171 ± 0.0092 µM | induction of cell mineralization ([2]; 1 μM, Day 9, FIG. 8(a)): clearly induced cell mineralization | induction of cell mineralization ([2]; 1 μM, Day 11, FIG. 8(b)): excellent ability to induce cell mineralization | induction of cell mineralization ([2]; 4 μM, FIG. 8(c)): obvious ability to induce cell mineralization | IC50 compared with simvastatin [3]: 83 fold | IC50 [3]: 269.1 ± 1.04 µM | solubility [10]: higher than simvastatin

C=CCNC(=O)C[C@H](O)C[C@H](O)CC[C@@H]1[C@@H]2C(=C[C@H](C)C[C@@H]2OC(=O)C(C)(C)CC)C=C[C@@H]1C [Compound 10]
IC50 [1]: 26.6 µM | IC50 [3]: 92.2 ± 2.1 µM

CCCNC(=O)C[C@H](O)C[C@H](O)CC[C@@H]1[C@@H]2C(=C[C@H](C)C[C@@H]2OC(=O)C(C)(C)CC)C=C[C@@H]1C [Compound 11]
IC50 [1]: 21.6 µM | IC50 [3]: 94.1 ± 10.6 µM
